In ChEMBL document CHEMBL1124342, “N6-bicycloalkyladenosines with unusually high potency and selectivity for the adenosine A1 receptor” (J Med Chem, 1989) one finds Ki data, which are given here for 8 compounds.

One assay has as its target Adenosine A2 receptor (Rattus norvegicus, UniProt P29276+P30543). Put plainly: Binding affinity against Adenosine A2 receptor using [3H]NECA with 50 nM CPA in rat striatal brain membranes. It is filed as cell membranes, Membrane.
As for `O[C@@H]1[C@H](O)[C@@H](CCl)O[C@H]1n1cnc2c(NC3CCCC3)ncnc21`, the Ki is on record as 1870 nM.
Still for that read-out and setting: as for `O[C@@H]1[C@H](O)[C@@H](CCl)O[C@H]1n1cnc2c(NC3C[C@H]4CCC3C4)ncnc21` (some centres undefined), the figure is 2100 nM; as for `O[C@@H]1[C@H](O)[C@@H](CCl)O[C@H]1n1cnc2c(N[C@@H]3C[C@@H]4CC[C@H]3C4)ncnc21`, 3000 nM.
As for `O[C@@H]1[C@H](O)[C@@H](CCl)O[C@H]1n1cnc2c(N[C@H]3C[C@H]4CCC3C4)ncnc21`, the Ki amounted to 3900 nM.

A further assay addresses T1, Adenosine receptor A1 (Rattus norvegicus, UniProt P25099).
T1 sequence (P25099 whole entry): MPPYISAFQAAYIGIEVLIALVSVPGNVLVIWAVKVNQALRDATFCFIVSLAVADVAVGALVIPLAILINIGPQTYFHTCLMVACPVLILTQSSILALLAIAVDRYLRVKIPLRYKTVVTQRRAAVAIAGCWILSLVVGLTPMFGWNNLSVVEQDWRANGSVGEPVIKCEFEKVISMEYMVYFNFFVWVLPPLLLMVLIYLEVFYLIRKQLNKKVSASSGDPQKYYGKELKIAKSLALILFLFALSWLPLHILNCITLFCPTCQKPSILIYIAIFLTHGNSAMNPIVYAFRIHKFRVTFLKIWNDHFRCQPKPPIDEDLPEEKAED
The assay can be described thus: Binding affinity against Adenosine A1 receptor using [3H]CHA in rat brain membranes. It is filed as cell membranes.
The compound `O[C@@H]1[C@H](O)[C@@H](CCl)O[C@H]1n1cnc2c(NC3CCCC3)ncnc21` returned a Ki of 0.72 nM.
For the compound `OC[C@H]1O[C@@H](n2cnc3c(NC4CC5CCC4C5)ncnc32)[C@H](O)[C@@H]1O` (some centres undefined), the Ki came out at 0.42 nM.
On to `OC[C@H]1O[C@@H](n2cnc3c(N[C@H]4CC5CCC4C5)ncnc32)[C@H](O)[C@@H]1O` (single isomer, unassigned), for which the affinity corresponds to a Ki of 0.3 nM.
Regarding `OC[C@H]1O[C@@H](n2cnc3c(NC4C[C@H]5CC[C@@H]4C5)ncnc32)[C@H](O)[C@@H]1O` (some centres undefined), the inhibition constant (Ki) came out at 0.91 nM.
Compound `OC[C@H]1O[C@@H](n2cnc3c(N[C@@H]4C[C@@H]5CC[C@H]4C5)ncnc32)[C@H](O)[C@@H]1O` came in with a Ki of 1.65 nM.
